Reference: US8563549B2, “Pyrimidine derivatives used as PI-3 kinase inhibitors” (Novartis AG, priority 2006, dated 2013)
Where two headings read alike, the source gives them in different places.

How the values were obtained:
[1] = system: A2780 ovarian cancer cells; assay: Cellular proliferation, Cell Titer Glo (Biological Method 4); format: cell-based; details: Homo sapiens, ovarian cancer cell line A2780
Procedure: In addition, many of the compounds of Table 1 were tested to determine their inhibitory activity in a cellular proliferation assay according to Biological Method 4.
The ability of the compounds of the invention to inhibit cellular proliferation were determined by using Cell Titer Glo, a commercially available assay from Promega Corporation. A2780 ovarian cancer cells were seeded in TC treated 96-well plates at a density of 1,000 per well in DMEM, 10% FBS, 1% Sodium Pyruvate, and 1% Penicillin Streptomycin for a minimum of 2 hrs prior to addition of compound. For each concentration of test compound, 2 μl (500×) aliquots of compound or 100% DMSO diluted in 500 μl of culture medium for 2× concentration then diluted 1× on the Cells. Cells were incubated for 72 hrs at 37° C., 5% CO2. After the 72 hour incubation, Cell Titer Glo reagent is added to determine number of viable cells remaining after exposure to the compound, and the EC50 value was calculated. The assay was performed according to the manufacturer's instruction (Promega Corporation, Madison, Wis. USA). Each experimental condition was performed in duplicate.

PI3 kinase alpha = PI3 kinase alpha (Homo sapiens, UniProt P42336); assay: PI3K ATP depletion assay (Biological Method 1, Assay 3); format: biochemical
Procedure: Assay 3: ATP Depletion Assay
Compounds to be tested are dissolved in DMSO and directly distributed into a black 384-well plate at 1.25 μL per well. To start the reaction, 25 μL of 10 nM PI3 kinase and 5 μg/mL 1-alpha-phosphatidylinositol (PI) are added into each well followed by 25 μL of 2 μM ATP. The reaction is performed until approx 50% of the ATP is depleted, and then stopped by the addition of 25 μL of KinaseGlo solution purchased from Promega. The stopped reaction is incubated for 5 minutes and the remaining ATP is then detected via luminescence.

pSer473 Akt = pSer473 Akt assay to monitor PI3K pathway in A2780 cells (Biological Method 2); format: cell-based; details: Homo sapiens, inhibition of Akt phosphorylation
Procedure: In this method, an assay for measuring the PI3K-mediated pSer473-Akt status after treatment with representative inhibitor compounds of the invention is described.
A2780 cells were cultured in DMEM supplemented with 10% FBS. L-glutamine, sodium pyruvate, and antibiotics. Cells were plated in the same medium at a density of 15,000 cells per well into 96 well tissue culture plates, with outside wells vacant, and allowed to adhere overnight.
Test compounds supplied in DMSO were diluted further into DMSO at 500 times the desired final concentrations before dilution into culture media to 2 times the final concentrations. Equal volumes of 2× compounds were added to the cells in 96 well plates and incubated at 37° C. for one hour. The media and compounds were then removed, the plates chilled and cells lysed in a lysis buffer (150 mM NaCl, 20 mM Tris pH 7.5, 1 mM EDTA, 1 mM EGTA, 1% Triton X-100) supplemented with phosphatase and protease inhibitors. After thorough mixing, lysates were transferred to both pSer473Akt and total Akt assay plates from Meso Scale Discovery (MSD), and incubated overnight with shaking at 4° C.
The assays were read on a SECTOR Imager 6000 instrument (Meso Scale Discovery). Ratios of the signal from pSer473Akt and total Akt assays were used to correct for any variability and the percent inhibition of pSer473Akt from the total signal seen in cells treated with compound versus DMSO alone was calculated and used to determine EC50 values for each compound.

Chain of PI3 kinase alpha (P42336 whole entry): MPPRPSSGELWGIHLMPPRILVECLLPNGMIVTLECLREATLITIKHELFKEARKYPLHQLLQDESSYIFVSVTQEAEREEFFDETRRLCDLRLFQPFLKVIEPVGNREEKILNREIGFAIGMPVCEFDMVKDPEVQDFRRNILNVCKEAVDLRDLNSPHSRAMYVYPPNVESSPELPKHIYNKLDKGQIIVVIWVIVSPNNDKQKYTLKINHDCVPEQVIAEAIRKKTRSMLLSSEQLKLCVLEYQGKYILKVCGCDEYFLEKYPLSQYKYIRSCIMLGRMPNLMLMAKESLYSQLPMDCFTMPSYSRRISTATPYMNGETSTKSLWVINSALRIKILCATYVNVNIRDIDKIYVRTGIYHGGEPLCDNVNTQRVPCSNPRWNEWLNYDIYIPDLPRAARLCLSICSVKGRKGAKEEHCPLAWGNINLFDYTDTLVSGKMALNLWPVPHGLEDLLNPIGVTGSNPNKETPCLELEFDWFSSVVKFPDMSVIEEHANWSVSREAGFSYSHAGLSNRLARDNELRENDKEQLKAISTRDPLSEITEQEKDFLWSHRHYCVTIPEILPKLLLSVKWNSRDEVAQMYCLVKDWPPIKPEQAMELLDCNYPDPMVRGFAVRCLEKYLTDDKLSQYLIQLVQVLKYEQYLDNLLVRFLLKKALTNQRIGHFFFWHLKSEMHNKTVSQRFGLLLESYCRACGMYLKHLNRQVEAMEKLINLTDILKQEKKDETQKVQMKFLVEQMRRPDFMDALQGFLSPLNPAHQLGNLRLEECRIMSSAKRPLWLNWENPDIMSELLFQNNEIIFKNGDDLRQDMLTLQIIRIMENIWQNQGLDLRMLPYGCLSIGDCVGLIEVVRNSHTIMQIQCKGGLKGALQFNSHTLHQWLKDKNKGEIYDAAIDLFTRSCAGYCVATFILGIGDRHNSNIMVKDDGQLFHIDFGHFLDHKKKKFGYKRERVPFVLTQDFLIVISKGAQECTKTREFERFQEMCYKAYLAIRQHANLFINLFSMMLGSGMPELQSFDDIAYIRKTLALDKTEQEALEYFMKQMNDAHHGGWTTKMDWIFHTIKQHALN
Chain of PI3 kinase alpha (P27986 whole entry partner): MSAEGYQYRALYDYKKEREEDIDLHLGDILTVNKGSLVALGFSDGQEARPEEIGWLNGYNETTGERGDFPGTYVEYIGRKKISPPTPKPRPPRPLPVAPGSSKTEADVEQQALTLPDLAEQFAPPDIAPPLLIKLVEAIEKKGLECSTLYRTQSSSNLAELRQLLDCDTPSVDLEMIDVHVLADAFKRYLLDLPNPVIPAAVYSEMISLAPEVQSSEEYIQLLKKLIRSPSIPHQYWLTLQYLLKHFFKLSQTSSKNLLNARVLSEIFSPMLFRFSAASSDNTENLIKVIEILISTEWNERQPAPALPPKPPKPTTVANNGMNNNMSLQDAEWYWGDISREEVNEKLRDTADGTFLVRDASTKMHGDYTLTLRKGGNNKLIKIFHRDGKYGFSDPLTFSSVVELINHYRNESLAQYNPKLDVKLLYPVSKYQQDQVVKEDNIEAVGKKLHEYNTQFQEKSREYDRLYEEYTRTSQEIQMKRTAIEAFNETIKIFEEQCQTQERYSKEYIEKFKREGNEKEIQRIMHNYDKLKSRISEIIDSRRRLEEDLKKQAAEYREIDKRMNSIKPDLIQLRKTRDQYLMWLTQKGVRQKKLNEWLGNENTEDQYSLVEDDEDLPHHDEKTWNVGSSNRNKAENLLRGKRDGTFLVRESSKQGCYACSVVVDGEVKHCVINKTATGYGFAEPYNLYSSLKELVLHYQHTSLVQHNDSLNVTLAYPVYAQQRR

| Compound | EC50 [1] | IC50 (PI3 kinase alpha) | further results |
| --- | --- | --- | --- |
| CCN(CC)CCc1csc(Nc2cc(-c3cnc(N)cc3C(F)(F)F)nc(N3CCOCC3)n2)n1 [Compound 13] | < 10 µM | – | – |
| COCCNc1cc(-c2cnc(N)nc2)nc(N2CCOCC2)n1 [Compound 14] | < 10 µM | – | – |
| CC(C)(C)Nc1cc(-c2cnc(N)nc2)nc(N2CCOCC2)n1 [Compound 16] | < 10 µM | – | – |
| Nc1cc(C(F)(F)F)c(-c2cc(N3CCCCC3=O)nc(N3CCOCC3)n2)cn1 [Compound 17] | < 10 µM | – | – |
| Nc1cc(C(F)(F)F)c(-c2cc(N3CCN(c4ccccc4)C3=O)nc(N3CCOCC3)n2)cn1 [Compound 18] | < 10 µM | – | – |
| CC(=O)N1CCC(Oc2cc(-c3cnc(N)cc3C(F)(F)F)nc(N3CCOCC3)n2)CC1 [Compound 19] | < 10 µM | – | – |
| CC(C)(C)OC(=O)N1CCC[C@H](Oc2cc(-c3cnc(N)cc3C(F)(F)F)nc(N3CCOCC3)n2)C1 [Compound 20] | < 10 µM | – | – |
| CC(=O)N1CCC[C@@H](Oc2cc(-c3cnc(N)nc3N)nc(N3CCOCC3)n2)C1 [Compound 29] | < 10 µM | – | – |
| CCN(CC)CCc1csc(Nc2cc(-c3cnc(N)nc3C(F)(F)F)nc(N3CCOCC3)n2)n1 [Compound 55] | < 1 µM | < 1 µM | EC50 (pSer473 Akt): < 1 µM |
| Cc1c(Nc2ncc(-c3ccccc3)s2)nc(N2CCOCC2)nc1-c1cnc(N)nc1 [Compound 61] | < 1 µM | < 1 µM | EC50 (pSer473 Akt): < 1 µM |
| CS(=O)(=O)N1CCC[C@H](Oc2cc(-c3cnc(N)nc3N)nc(N3CCOCC3)n2)C1 [Compound 89] | < 1 µM | < 1 µM | EC50 (pSer473 Akt): < 1 µM |
| CS(=O)(=O)c1cccc(-c2cc(-c3cnc(N)cc3C#N)nc(N3CCOCC3)n2)c1 [Compound 92] | < 10 µM | – | – |
| CC(C)N1CCC(Oc2ccc(Nc3cc(-c4cnc(N)cc4C(F)(F)F)nc(N4CCOCC4)n3)cn2)C1 (centres unmarked) [Compound 93] | < 10 µM | – | – |
| CS(=O)(=O)c1cccc(-c2cc(-c3cnc(N)cc3C(F)(F)F)nc(N3CCOCC3)n2)c1 [Compound 95] | < 10 µM | – | – |
| Nc1ncc(-c2cc(OC3CCN(C(=O)OC4CCCC4)CC3)nc(N3CCOCC3)n2)c(N)n1 [Compound 97] | < 10 µM | – | – |
| CC(=O)N1CCC(Oc2cc(-c3cnc(N)nc3N)nc(N3CCOCC3)n2)CC1 [Compound 99] | < 10 µM | – | – |
| CC(=O)Nc1ncc(-c2cc(-c3cnc(N)cc3C(F)(F)F)nc(N3CCOCC3)n2)s1 [Compound 126] | < 10 µM | < 1 µM | EC50 (pSer473 Akt): < 1 µM |
| CCN(CC)CCc1csc(Nc2cc(-c3cnc(N)nc3N)nc(N3CCOCC3)n2)n1 [Compound 133] | < 1 µM | < 1 µM | EC50 (pSer473 Akt): < 1 µM |
| Nc1ncc(-c2cc(OC3CCN(C(=O)OCc4ccccc4)CC3)nc(N3CCOCC3)n2)c(N)n1 [Compound 146] | < 1 µM | < 1 µM | EC50 (pSer473 Akt): < 1 µM |
| COc1ccc(Nc2cc(-c3cnc(N)nc3C(F)(F)F)nc(N3CCOCC3)n2)cn1 [Compound 151] | < 10 µM | < 1 µM | EC50 (pSer473 Akt): < 1 µM |
| Nc1ccc(-c2cc(-c3cc4ccccc4nc3NCCN3CCCC3)nc(N3CCOCC3)n2)cn1 [Compound 182] | < 1 µM | < 1 µM | EC50 (pSer473 Akt): < 1 µM |
| CN(C)CCOc1cncc(-c2cc(-c3cnc(N)cc3C(F)(F)F)nc(N3CCOCC3)n2)c1 [Compound 203] | < 10 µM | < 1 µM | EC50 (pSer473 Akt): < 1 µM |

| Compound | EC50 [1] | IC50 (PI3 kinase alpha) | further results |
| --- | --- | --- | --- |
| Nc1ncc(-c2cc(-c3cncc(O)c3)nc(N3CCOCC3)n2)cn1 [Compound 274] | < 10 µM | – | – |
| COc1cncc(-c2cc(-c3ccc(N)nc3)nc(N3CCOCC3)n2)c1 [Compound 275] | < 10 µM | – | – |
| Nc1ncc(-c2cc(-c3ccc(F)nc3)nc(N3CCOCC3)n2)cn1 [Compound 278] | < 1 µM | – | – |
| Nc1ncc(-c2cc(-c3cnc(N)nc3)nc(N3CCOCC3)n2)cn1 [Compound 279] | < 1 µM | – | – |
| Nc1cc(C(F)(F)F)c(-c2cc(-c3cccnc3NCCO)nc(N3CCOCC3)n2)cn1 [Compound 285] | < 10 µM | < 1 µM | – |
| Nc1cc(Cl)c(-c2cc(OC3CCOCC3)nc(N3CCOCC3)n2)cn1 [Compound 328] | < 10 µM | – | – |
| N#Cc1cccnc1Nc1cc(-c2ccc(N)nc2)nc(N2CCOCC2)n1 [Compound 364] | < 25 µM | < 10 µM | – |
| Cn1c(Nc2cc(-c3cnc(N)nc3)nc(N3CCOCC3)n2)nc2ccccc21 [Compound 394] | < 10 µM | < 1 µM | – |
| Nc1ncc(-c2cc(N[C@H]3CCC[C@@H]3OCc3ccccc3)nc(N3CCOCC3)n2)cn1 [Compound 396] | < 10 µM | < 1 µM | – |
| Nc1ncc(-c2cc(Nc3ccnc4c(C(F)(F)F)cccc34)nc(N3CCOCC3)n2)cn1 [Compound 408] | – | – | IC50 (PI3 kinase alpha; Table 1, Biological Method 1): < 1 µM; EC50 ([1]; Biological Method 4): < 10 µM |
| CN(C)C(=O)c1cnc(N2CCOCC2)nc1-c1cnc(N)nc1 [Compound 422] | – | – | IC50 (PI3 kinase alpha; Table 1, Biological Method 1): < 10 µM |
| Nc1ccc(-c2cc(NCc3ccncc3)nc(N3CCOCC3)n2)cn1 [Compound 443] | – | – | IC50 (PI3 kinase alpha; Table 1, Biological Method 1): < 10 µM |
| Nc1ccc(-c2cc(NCc3ccccn3)nc(N3CCOCC3)n2)cn1 [Compound 444] | – | – | IC50 (PI3 kinase alpha; Table 1, Biological Method 1): < 10 µM |
| Nc1ccc(-c2cc(NCc3cccnc3)nc(N3CCOCC3)n2)cn1 [Compound 445] | – | – | IC50 (PI3 kinase alpha; Table 1, Biological Method 1): < 10 µM |
| CS(=O)(=O)Nc1cc(N)ncc1-c1cc(Nc2cnc3ccccc3c2)nc(N2CCOCC2)n1 [Compound 492] | – | – | IC50 (PI3 kinase alpha; Table 1, Biological Method 1): < 10 µM |
| COc1ccc2cc(Nc3cc(-c4ccc(N)nc4)nc(N4CCOCC4)n3)cnc2c1 [Compound 494] | – | – | EC50 ([1]; Biological Method 4): < 10 µM |
| Nc1ccc(-c2cc(Nc3cnc4ccc(OC(F)(F)F)cc4c3)nc(N3CCOCC3)n2)cn1 [Compound 496] | – | – | IC50 (PI3 kinase alpha; Table 1, Biological Method 1): < 10 µM |
| Nc1ccc(-c2cc(-c3ccc(N4CCN(CCO)CC4)nc3)nc(N3CCOCC3)n2)cn1 [Compound 499] | – | – | IC50 (PI3 kinase alpha; Table 1, Biological Method 1): < 1 µM; EC50 ([1]; Biological Method 4): < 10 µM |
| CS(=O)(=O)Nc1ccc(-c2cc(-c3ccc(N)nc3)nc(N3CCOCC3)n2)cn1 [Compound 503] | – | – | IC50 (PI3 kinase alpha; Table 1, Biological Method 1): < 1 µM; EC50 ([1]; Biological Method 4): < 10 µM |
| N#Cc1cnc(Nc2cc(-c3cnc(N)nc3C(F)(F)F)nc(N3CCOCC3)n2)s1 [Compound 545] | – | – | IC50 (PI3 kinase alpha; Table 1, Biological Method 1): < 1 µM |
| Cc1c(Nc2nc(-c3ccccc3)cs2)nc(N2CCOCC2)nc1-c1cnc(N)cc1C(F)(F)F [Compound 555] | – | – | IC50 (PI3 kinase alpha; Table 1, Biological Method 1): < 10 µM |
